Measured values from patent US20260007651A1, “Effect of YEL002 on Conditions and Diseases” (RadMit, Inc., priority 2022, published 2026).

System: lymphoma
Test: Lymphoma incidence in mice (National Institute of Health experiment)
Format: in vivo
Conditions: reduced from 10-20%
Description: This was observed after treating mice right after birth, if humans are treated later in life it is possible that only 10 or 5 years are added and probably more for DNA repair deficient diseases like ataxia telangiectasia (ATM) which is still very substantial.

COc1ccc2cc(-c3nc4ccc(C)cn4c3NCc3ccco3)c(=O)[nH]c2c1 [YEL002]
spontaneous frequency of lymphoma: 0%
